{"source": "patent US11066423B2", "about": "“Monomeric bimetal hydroxycitric acid compounds and methods of making and using the same” (GLYKON TECHNOLOGIES GROUP, LLC, priority 2016, dated 2021)", "key": {"[1]": {"system": "de novo lipogenesis (DNL)", "experiment": "Decrease of de novo lipogenesis in rats (literature)", "assay_type": "in vivo", "conditions": "extrapolated from rats", "from_the_text": "Dosages of various HCA compositions found to be effective are quite large, indeed beyond the normal range for pharmaceutical products, with efficacy that is highly variable. […] A later study found a significant, yet limited effect after 7 days of a diet designed specifically to induce de novo lipogenesis in humans. (Physiol Behay. 2006 Jul. 30; 88(4-5):371-81). See also, Nutr Metab (Lond). 2005 Sep. 13; 2:23."}, "[2]": {"system": "de novo lipogenesis (DNL)", "conditions": "obese subjects, 6 g HCA/day for 5 days; cited from earlier work"}, "[3]": {"experiment": "Conductivity of solutions (electrical conductivity, HACH Conductivity/TDS meter)", "assay_type": "physicochemical", "from_the_text": "The structure of the subject compounds (e.g., as described herein) can be deduced using a conductance meter to observe the extent of dissociate of the first and/or second metals from the compounds. In an experiment described below equimolar samples and comparative electrolyte conductance to K-acetate solution as a standard, data may be obtained which is characteristic of electrolyte binary conductants. […] The KMgHCA solution in water may have a pH 8-10 depending on the concentration. Under this condition, the heterocyclic anion formed will tend toward a stable form rather than an ionizable one.\nSeveral experiments investigating the electrical conductivities of solutions of KMgHCA, KZnHCA and KMnHCA were performed. The equipment used was HACH Conductivity/TDS meter, P/N=4460-00.\nMaterials: KMgHCA.4H2O, KZnHCA.2H2O, KMnHCA.2H2O were prepared using methods described herein. KC2H3O2 and […] was obtained from Merck. H2O used was demineralized water.\nGeneral procedure: All the HCA compounds and Acetate were weighed and placed in a volumetric flask and dissolved with demineralized water to one liter solution and then they were tested the conductivity (EC)."}, "[4]": {"system": "osteoporosis and calcification on hand and leg", "experiment": "Example 13: comparison of different bimetal regimes (KMg vs. KCa vs. combination), two subjects", "assay_type": "in vivo, human", "set-up": "key to Treatment performance: + +: very good performance; + −: good but slight complaint", "experimental": "Subject I: a person, 40 kg (cited in Example 11, above)\nSubject II: a person; 72 kg\n• Treatment: A. Mixture 25% KCa HCA+75% KMg HCA bimetals (100-200 mg) • B. Only KMg HCA bimetal Results: […]"}, "Osteoporosis": {"system": "Osteoporosis", "experiment": "Example 14: comparison of KCaHCA and/or KMgHCA compositions, single subject", "assay_type": "in vivo, human", "conditions": "for symptoms of osteoporosis: 200 mg 3 times a day after meals; for subject's condition during the regimen: 200 mg doses 3 times a day, sequential regimens in the same subject after 3 months of the blend", "experimental": "• Subject: (cited as Example 12, above) • • Problem: Osteoporosis Treatment: Materials were consumed 3 times a day after meals. • Experiment 1. Blending 150 mg KMgHCA.8H2O+50 mg KCaHCA.3H2O • A 200 mg mixture of KCaHCA (25%) and KMgHCA (75%) prepared according to the subject methods was used. The actual percentage of calcium was (40/338)×25%=2.96%. Since KCaHCA.3H2O was used the percentage of magnesium in the composition was (24/412)×75%=4.37%. Since KMgHCA.8H2O was used, the ratio Ca:Mg=0.15:0.36 in mmol. • Experiment 2. 200 mg KMgHCA.8H2O • Experiment 3."}, "[5]": {"conditions": "cited from earlier work"}, "[6]": {"conditions": "0.3 mmol/l in demineralized water, no additive"}}}
{"smiles": "O=C(O)CC(O)(C(=O)O)C(O)C(=O)O", "note": "(stereo not drawn) [HCA, Hydroxycitric acid]", "values": [{"measurement": "effective dose extrapolated to a 70 kg human being", "setting": "[1]", "value": "approximately 4.5 g/day"}, {"measurement": "inhibition of DNL / promotion of fatty acid oxidation", "setting": "[2]", "value": "failed to inhibit DNL"}]}
{"smiles": "O=C1CC(O)(C(O)C(=O)[O][Mg][O]C(=O)C(O)C2(O)CC(=O)[O][Mg][O]C2=O)C(=O)[O][Mg][O]1", "note": "(stereo not drawn) [Mg3(HCA)2•2H2O, reference compound]", "values": [{"measurement": "E. C (μS/cm)", "setting": "[3]; 0.1 mmol/l in demineralized water (equimolar in Mg2+ to run 8)", "value": 31.2, "unit": "μS/cm"}]}
{"smiles": "O=C1CC(O)(C(O)C(=O)[O-])C(=O)[O][Mg][O]1.[K+]", "note": "(stereo not drawn) [KMgHCA, Potassium Magnesium Bimetal HCA Compound]", "values": [{"measurement": "Treatment performance", "setting": "[4]; Patient II (72 kg)", "value": "+ −"}, {"measurement": "observed result following treatment", "setting": "[4]; Subject II", "value": "could stand on their feet"}, {"measurement": "reduction of symptoms", "setting": "[4]; Subject II", "value": "partial reduction of symptoms"}, {"measurement": "κ value contribution of Mg—O bond (half of the 2 bond contribution)", "setting": "[3]; 0.3 mmol/l", "value": 2.095, "unit": "μS/cm"}, {"measurement": "E. C (μS/cm)", "setting": "[3]; [6]", "value": 60.25, "unit": "μS/cm"}, {"measurement": "E. C (μS/cm)", "setting": "[3]; 0.3 mmol/l, additive 10 mg gliserol", "value": 60.23, "unit": "μS/cm"}, {"measurement": "E. C (μS/cm)", "setting": "[3]; 0.3 mmol/l, additive 10 mg glucose", "value": 60.29, "unit": "μS/cm"}, {"measurement": "2 bond of Mg—O contribution to κ value", "setting": "[3]; run 2 minus run 1 (60.25-56.06)", "value": "~4.19", "unit": "μS/cm"}, {"measurement": "symptoms of osteoporosis", "setting": "Osteoporosis", "value": "partial improvement"}, {"measurement": "subject's condition during the regimen", "setting": "Osteoporosis", "value": "slight difficult to walk because feeling of burning sensation in their feet"}]}
{"smiles": "CC(=O)[O-].[K+]", "note": "[KC2H3O2, K-acetate, reference compound]", "values": [{"measurement": "E. C (μS/cm)", "setting": "[3]; [6]", "value": 56.06, "unit": "μS/cm"}]}
{"smiles": "CC(=O)[O-].CC(=O)[O-].O.O.O.O.[Mg+2]", "note": "[Mg(CH3COO)2•4H2O, reference compound]", "values": [{"measurement": "E. C (μS/cm)", "setting": "[3]; [6]", "value": 32.3, "unit": "μS/cm"}]}
{"smiles": "O=C(O)CO", "note": "[glycolic acid]", "values": [{"measurement": "pKa", "setting": "[5]", "value": "approx 3.83"}]}
{"smiles": "O=C([O-])C[C@@](O)(C(=O)[O-])[C@H](O)C(=O)[O-].[Ca+2].[K+]", "note": "[KCaHCA]", "values": [{"measurement": "symptoms of osteoporosis", "setting": "Osteoporosis", "value": "not effective"}, {"measurement": "subject's condition during the regimen", "setting": "Osteoporosis", "value": "unable to move their leg"}]}
